Laboratory results reported in patent US20240270762A1, “PENICILLIN-BINDING PROTEIN INHIBITORS” (priority 2021, published 2024).
Converted amounts (≈) assume the structure as drawn. Like-named read-outs stand apart in the source and are kept apart here.

Columns and labels:
A. baumannii 1258916 = test: microbe, parasite or virus in culture; type: cell-based, Acinetobacter baumannii
[1] = tested on: B. humptydooensis ATCC BAA-2767; test: microbe, parasite or virus in culture; type: cell-based; conditions: Burkholderia humptydooensis, ATCCBAA2767, read-out: Minimum inhibitory concentration (MIC), B. humptydooensis ATCC BAA-2767
P. aeruginosa ATCC 27853 = test: microbe, parasite or virus in culture; type: cell-based; conditions: Pseudomonas aeruginosa, ATCC27853, read-out: Minimum inhibitory concentration, P. aeruginosa ATCC 27853
P. aeruginosa ATCC 35151 = test: microbe, parasite or virus in culture; type: cell-based; conditions: Pseudomonas aeruginosa, ATCC35151, read-out: Minimum inhibitory concentration, P. aeruginosa ATCC 35151
A. baumannii CDC-0033 = test: microbe, parasite or virus in culture; type: cell-based; conditions: Acinetobacter baumannii
P. aeruginosa CDC-0090 = test: microbe, parasite or virus in culture; type: cell-based; conditions: Pseudomonas aeruginosa, CDC0090, read-out: Minimum inhibitory concentration, P. aeruginosa CDC-0090
[2] = tested on: B. thailandensis ATCC 700388; test: microbe, parasite or virus in culture; type: cell-based; conditions: Burkholderia thailandensis, ATCC700388, read-out: Minimum inhibitory concentration (MIC), B. thailandensis ATCC 700388
A. baumannii ATCC 17978 = test: microbe, parasite or virus in culture; type: cell-based; conditions: Acinetobacter baumannii
A. baumannii PBP1a = target: T1, A. baumannii PBP1a (Acinetobacter baumannii, UniProt A0ABX6CK30); test: Bocillin-FL competition binding via gel filtration, A. baumannii PBP1a; conditions: competition binding assay using Bocillin-FL via gel filtration; read-out: A. baumannii PBP1a Potency
T1 sequence (A0ABX6CK30 1-851): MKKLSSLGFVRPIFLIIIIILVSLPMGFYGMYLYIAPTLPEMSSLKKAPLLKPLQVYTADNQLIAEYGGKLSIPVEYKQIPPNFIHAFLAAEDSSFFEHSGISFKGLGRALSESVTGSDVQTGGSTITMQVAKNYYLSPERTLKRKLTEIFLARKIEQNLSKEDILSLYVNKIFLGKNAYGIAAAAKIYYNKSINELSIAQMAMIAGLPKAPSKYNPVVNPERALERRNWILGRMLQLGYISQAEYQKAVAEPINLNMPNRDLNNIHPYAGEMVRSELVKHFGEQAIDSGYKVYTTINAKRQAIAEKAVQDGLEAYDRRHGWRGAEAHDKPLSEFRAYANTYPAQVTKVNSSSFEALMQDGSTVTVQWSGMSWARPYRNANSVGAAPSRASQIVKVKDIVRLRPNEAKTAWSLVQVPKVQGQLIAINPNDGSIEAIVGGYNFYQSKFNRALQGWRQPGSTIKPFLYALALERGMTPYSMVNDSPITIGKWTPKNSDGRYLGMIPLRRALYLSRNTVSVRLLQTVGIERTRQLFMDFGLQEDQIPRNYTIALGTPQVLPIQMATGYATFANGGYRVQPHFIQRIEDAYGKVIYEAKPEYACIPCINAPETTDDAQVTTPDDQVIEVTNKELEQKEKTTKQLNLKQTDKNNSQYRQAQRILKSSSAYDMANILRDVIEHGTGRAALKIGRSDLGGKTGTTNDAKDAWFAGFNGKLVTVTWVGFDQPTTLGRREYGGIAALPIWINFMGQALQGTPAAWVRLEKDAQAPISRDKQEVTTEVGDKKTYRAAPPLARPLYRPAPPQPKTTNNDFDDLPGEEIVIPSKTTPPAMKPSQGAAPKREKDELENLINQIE
Outline: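 Competitive equilibrium binding; reporter Bocillin-FL. PBP + inhibitor (titration) pre-incubated → Bocillin-FL, 15 min → gel filtration → fluorescence. EC50 from Hill fit of fraction bound vs [inhibitor].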

P. aeruginosa CDC-0095 = test: microbe, parasite or virus in culture; type: cell-based; conditions: Pseudomonas aeruginosa, CDC0095, read-out: Minimum inhibitory concentration, P. aeruginosa CDC-0095
P. aeruginosa CDC-0054 = test: microbe, parasite or virus in culture; type: cell-based; conditions: Pseudomonas aeruginosa, CDC0054, read-out: Minimum inhibitory concentration, P. aeruginosa CDC-0054
[3] = Acinetobacter baumannii, 1258916, read-out: MIC, A. baumannii 1258916
[4] = CDC0033, read-out: MIC, A. baumannii CDC-0033
[5] = ATCC17978, read-out: MIC, A. baumannii ATCC 17978
[6] = Acinetobacter baumannii, 1258916, read-out: Minimum inhibitory concentration (MIC), A. baumannii 1258916
[7] = CDC0033, read-out: Minimum inhibitory concentration (MIC), A. baumannii CDC-0033
[8] = ATCC17978, read-out: Minimum inhibitory concentration (MIC), A. baumannii ATCC 17978

SMILES	MIC (A. baumannii 1258916; [3])	MIC [1]	MIC (P. aeruginosa ATCC 27853)	MIC (P. aeruginosa ATCC 35151)	MIC (A. baumannii CDC-0033; [4])	MIC (P. aeruginosa CDC-0090)	MIC [2]	MIC (A. baumannii ATCC 17978; [5])	EC50 (A. baumannii PBP1a)	MIC (P. aeruginosa CDC-0095)	MIC (P. aeruginosa CDC-0054)	MIC (A. baumannii 1258916; [6])	MIC (A. baumannii CDC-0033; [7])	MIC (A. baumannii ATCC 17978; [8])
O=C(O)c1c(F)ccc2c1OB(O)[C@@H](NC(=O)[C@H](NC(=O)N1CCN(C3CCN(C(=O)c4ccc(O)cc4)CC3)C1=O)c1cc(F)c(O)c(O)c1Cl)C2 (single isomer, unassigned) [Example 463]	< 1 µg/mL	< 1 µg/mL	< 1 µg/mL	< 1 µg/mL	< 1 µg/mL	< 1 µg/mL	< 1 µg/mL	< 1 µg/mL	< 10 µM	< 1 µg/mL	< 1 µg/mL	–	–	–
O=C(O)c1c(F)ccc2c1OB(O)[C@@H](NC(=O)[C@H](NC(=O)N1CCN(C3CCN(C(=O)Nc4cccc(O)c4Cl)CC3)C1=O)c1cc(F)c(O)c(O)c1Cl)C2 [Example 447, (R)-3-((R)-2-(3-(1-((2-chloro-3-hydroxyphenyl)carbamoyl)piperidin-4-yl)-2-oxoimidazolidine-1-carboxamido)-2-(2-chloro-5-fluoro-3,4-dihydroxyphenyl)acetamido)-7-fluoro-2-hydroxy-3,4-dihydro-2H-benzo[e][1,2]oxaborinine-8-carboxylic acid]	< 1 µg/mL	< 1 µg/mL	< 1 µg/mL	< 1 µg/mL	< 1 µg/mL	< 1 µg/mL	< 1 µg/mL	< 1 µg/mL	< 10 µM	< 1 µg/mL	< 1 µg/mL	–	–	–
O=C(O)c1c(F)ccc2c1OB(O)[C@@H](NC(=O)C(NC(=O)N1CCN(C3CCN(C(=O)Nc4cc(O)ccc4F)CC3)C(=O)C1=O)c1cc(F)c(O)c(O)c1Cl)C2 (stereo partly drawn) [Example 479, (3R)-3-(2-(2-chloro-5-fluoro-3,4-dihydroxyphenyl)-2-(4-(1-((2-fluoro-5-hydroxyphenyl)carbamoyl)piperidin-4-yl)-2,3-dioxopiperazine-1-carboxamido)acetamido)-7-fluoro-2-hydroxy-3,4-dihydro-2H-benzo[e][1,2]oxaborinine-8-carboxylic acid]	< 1 µg/mL	2 to 4 µg/mL (≈ 2.44 to 4.88 µM)	2 to 4 µg/mL (≈ 2.44 to 4.88 µM)	< 1 µg/mL	2 to 4 µg/mL (≈ 2.44 to 4.88 µM)	2 to 4 µg/mL (≈ 2.44 to 4.88 µM)	< 1 µg/mL	< 1 µg/mL	10 to 50 µM	< 1 µg/mL	< 1 µg/mL	–	–	–
O=C(O)c1c(F)ccc2c1OB(O)[C@@H](NC(=O)[C@H](NC(=O)N1CCN(Cc3ccc(O)c(O)c3Cl)C(=O)C1=O)c1ccc(P(=O)(O)O)cc1)C2 (single isomer, unassigned) [Example 160]	< 1 µg/mL	< 1 µg/mL	< 1 µg/mL	< 1 µg/mL	< 1 µg/mL	< 1 µg/mL	< 1 µg/mL	< 1 µg/mL	< 10 µM	< 1 µg/mL	< 1 µg/mL	–	–	–
O=C(O)c1c(F)ccc2c1OB(O)[C@@H](NC(=O)[C@H](NC(=O)N1CCN(C3CCN(C(=O)c4ccc(F)c(O)c4F)CC3)C1=O)c1cc(F)c(O)c(O)c1Cl)C2 (single isomer, unassigned) [Example 437]	< 1 µg/mL	< 1 µg/mL	< 1 µg/mL	< 1 µg/mL	< 1 µg/mL	< 1 µg/mL	< 1 µg/mL	< 1 µg/mL	< 10 µM	< 1 µg/mL	< 1 µg/mL	–	–	–
O=C(O)c1c(F)ccc2c1OB(O)[C@@H](NC(=O)[C@H](NC(=O)N1CCN(C3CCN(C(=O)Nc4cccc(O)c4Cl)CC3)C(=O)C1=O)c1cc(F)c(O)c(O)c1Cl)C2 [Example 482, (R)-3-((R)-2-(4-(1-((2-chloro-3-hydroxyphenyl)carbamoyl)piperidin-4-yl)-2,3-dioxopiperazine-1-carboxamido)-2-(2-chloro-5-fluoro-3,4-dihydroxyphenyl)acetamido)-7-fluoro-2-hydroxy-3,4-dihydro-2H-benzo[e][1,2]oxaborinine-8-carboxylic acid]	< 1 µg/mL	2 to 4 µg/mL (≈ 2.39 to 4.79 µM)	2 to 4 µg/mL (≈ 2.39 to 4.79 µM)	< 1 µg/mL	2 to 4 µg/mL (≈ 2.39 to 4.79 µM)	2 to 4 µg/mL (≈ 2.39 to 4.79 µM)	< 1 µg/mL	< 1 µg/mL	10 to 50 µM	< 1 µg/mL	< 1 µg/mL	–	–	–
O=C(O)c1c(F)ccc2c1OB(O)[C@@H](NC(=O)[C@H](NC(=O)N1CCN(C3CCN(C(=O)Nc4cc(O)ccc4F)CC3)C1=O)c1cc(F)c(O)c(O)c1Cl)C2 (single isomer, unassigned) [Example 451]	< 1 µg/mL	< 1 µg/mL	< 1 µg/mL	< 1 µg/mL	< 1 µg/mL	< 1 µg/mL	< 1 µg/mL	< 1 µg/mL	< 10 µM	< 1 µg/mL	< 1 µg/mL	–	–	–
O=C(O)c1c(F)ccc2c1OB(O)[C@@H](NC(=O)C(NC(=O)N1CCN(C3CCN(C(=O)Nc4cc(O)c(F)cc4Cl)CC3)C(=O)C1=O)c1cc(F)c(O)c(O)c1Cl)C2 (stereo partly drawn) [Example 490, (3R)-3-(2-(4-(1-((2-chloro-4-fluoro-5-hydroxyphenyl)carbamoyl)piperidin-4-yl)-2,3-dioxopiperazine-1-carboxamido)-2-(2-chloro-5-fluoro-3,4-dihydroxyphenyl)acetamido)-7-fluoro-2-hydroxy-3,4-dihydro-2H-benzo[e][1,2]oxaborinine-8-carboxylic acid]	–	> 128 µg/mL	2 to 4 µg/mL (≈ 2.34 to 4.69 µM)	< 1 µg/mL	–	2 to 4 µg/mL (≈ 2.34 to 4.69 µM)	32 to 64 µg/mL (≈ 37.5 to 75 µM)	–	< 10 µM	2 to 4 µg/mL (≈ 2.34 to 4.69 µM)	8 to 16 µg/mL (≈ 9.37 to 18.7 µM)	2 to 4 µg/mL (≈ 2.34 to 4.69 µM)	2 to 4 µg/mL (≈ 2.34 to 4.69 µM)	< 1 µg/mL
O=C(O)c1c(F)ccc2c1OB(O)[C@@H](NC(=O)[C@H](NC(=O)N1CCN(Cc3ccc(O)c(O)c3Cl)C(=O)C1=O)c1ccc(P(=O)(O)O)c(F)c1F)C2 [Example 166, (R)-3-((R)-2-(4-(2-chloro-3,4-dihydroxybenzyl)-2,3-dioxopiperazine-1-carboxamido)-2-(2,3-difluoro-4-phosphonophenyl)acetamido)-7-fluoro-2-hydroxy-3,4-dihydro-2H-benzo[e][1,2]oxaborinine-8-carboxylic acid]	< 1 µg/mL	< 1 µg/mL	< 1 µg/mL	< 1 µg/mL	< 1 µg/mL	2 to 4 µg/mL (≈ 2.59 to 5.19 µM)	< 1 µg/mL	< 1 µg/mL	10 to 50 µM	< 1 µg/mL	< 1 µg/mL	–	–	–
O=C(NCCN1CCN(C(=O)N[C@@H](C(=O)N[C@H]2Cc3ccc(F)c(C(=O)O)c3OB2O)c2ccc(P(=O)(O)O)cc2)C(=O)C1=O)c1ccc(O)c(O)c1Cl [Example 503, (R)-3-((R)-2-(4-(2-(2-chloro-3,4-dihydroxybenzamido)ethyl)-2,3-dioxopiperazine-1-carboxamido)-2-(4-phosphonophenyl)acetamido)-7-fluoro-2-hydroxy-3,4-dihydro-2H-benzo[e][1,2]oxaborinine-8-carboxylic acid]	–	< 1 µg/mL	< 1 µg/mL	< 1 µg/mL	–	< 1 µg/mL	< 1 µg/mL	–	10 to 50 µM	< 1 µg/mL	< 1 µg/mL	< 1 µg/mL	2 to 4 µg/mL (≈ 2.53 to 5.05 µM)	< 1 µg/mL
